Reference: PubChem BioAssay AID602415 (The Scripps Research Institute Molecular Screening Center, 2012)
Calls of active or inactive are those of the source.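 The calls were made as follows: active = substrate turnover at or below 60%; inactive = substrate turnover above 60%.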

Target: Diacylglycerol lipase-beta (Mus musculus) (UniProt Q91WC9)
Assay: mouse DAGLb substrate turnover inhibition – biochemical, LC-MS, overexpressed mouse DAGLb (AID 602415)
Conditions: HEK293T membranes overexpressing mDAGLb, SAG turnover LC-MS; at 10 µM; active compounds read low

Diacylglycerol lipase-beta (Mus musculus), sequence (Q91WC9 whole entry, looked up): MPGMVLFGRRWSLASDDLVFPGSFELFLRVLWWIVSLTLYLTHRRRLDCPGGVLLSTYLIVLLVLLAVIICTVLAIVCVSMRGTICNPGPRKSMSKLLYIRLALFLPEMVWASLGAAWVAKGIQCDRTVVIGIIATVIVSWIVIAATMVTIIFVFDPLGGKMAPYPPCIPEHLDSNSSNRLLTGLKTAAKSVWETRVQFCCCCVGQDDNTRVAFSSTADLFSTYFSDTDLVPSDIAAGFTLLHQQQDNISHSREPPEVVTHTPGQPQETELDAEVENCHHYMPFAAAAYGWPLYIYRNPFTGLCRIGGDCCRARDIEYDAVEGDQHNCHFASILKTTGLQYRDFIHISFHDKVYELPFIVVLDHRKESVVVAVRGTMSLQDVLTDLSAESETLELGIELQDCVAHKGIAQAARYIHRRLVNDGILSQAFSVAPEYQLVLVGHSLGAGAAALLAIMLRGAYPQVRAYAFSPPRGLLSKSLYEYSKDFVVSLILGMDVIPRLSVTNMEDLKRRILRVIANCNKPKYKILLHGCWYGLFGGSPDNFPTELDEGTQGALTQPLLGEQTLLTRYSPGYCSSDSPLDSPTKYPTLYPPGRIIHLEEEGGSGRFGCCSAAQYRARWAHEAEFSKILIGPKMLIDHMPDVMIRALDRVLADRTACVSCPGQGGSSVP

SMILES | substrate turnover
Nc1nc(-c2ccccc2)c(N=Nc2ccc(Cl)cc2)s1 | 23%
CC1(C)CC(=O)C2=C(C1)N=C1c3ccccc3C(=O)C1C2c1ccc(Cl)cc1 (stereo unspecified) | 82% (inactive)
CCCCCCCCCCC[C@@H](C[C@@H]1OC(=O)[C@H]1CCCCCC)OC(=O)[C@H](CC(C)C)NC=O | 0%
O=C(NNc1c2ccccc2nc2ccccc12)c1ccc(O)cc1O | 79% (inactive)
COc1cc(C=NNc2ccccc2[N+](=O)[O-])cc(OC)c1O | 60% (inactive)
NP(=O)(OCCCCc1ccccc1)Oc1ccccc1Cl (stereo unspecified) | 25%
O=[N+]([O-])c1ccccc1NN=Cc1c[nH]c2ccccc12 | 80% (inactive)
CCN(Cc1ccccc1)c1ccc(N=Nc2nn(C)c(C)c2[N+](=O)[O-])cc1 | 97% (inactive)
O=C(O)COc1ccccc1C=NNc1ccc(S(=O)(=O)Nc2ccc(Cl)cc2)cc1[N+](=O)[O-] | 50%
O=C1C(NS(=O)(=O)c2cccs2)=C(N2CCN(c3cccc(Cl)c3)CC2)C(=O)c2ccccc21 | 81% (inactive)
Cc1oc2cc([N+](=O)[O-])c(O)c([N+](=O)[O-])c2c1C(=O)c1ccc(Br)cc1 | 62% (inactive)
CN(C)c1ccc(N=Nc2ccc(S(N)(=O)=O)cc2)cc1 | 59%
O=C(NC(C(=O)NN=Cc1c2ccccc2cc2ccccc12)c1n[nH]c(=O)c2ccccc12)c1ccccc1 (stereo unspecified) | 64% (inactive)
Nc1cc([N+](=O)[O-])cc2oc(-c3ccccc3)cc12 | 89% (inactive)
CC1(C)CCCN(C(=O)c2ccc3c(c2NCCO)C(=O)c2ccccc2C3=O)C1 | 20%
Nc1nc(-c2ccccc2)c(N=Nc2cccc3ccccc23)s1 | 95% (inactive)
CC1(C)CC(=O)C2=C(C1)c1c(ccc3ccccc13)NC2c1cc([N+](=O)[O-])cc([N+](=O)[O-])c1O (stereo unspecified) | 46%
COC(=O)c1ccccc1NCc1cc(=O)oc2cc(O)c(O)cc12 | 48%
O=C(O)c1cc(S(=O)(=O)Nc2cc(Cl)ccc2Oc2ccccc2)ccc1O | 53%
COc1ccc(S(=O)(=O)N2CCOCC2)cc1N=Nc1sc(N)nc1-c1ccccc1 | 97% (inactive)
COc1cccc(C(=O)NNc2c3ccccc3nc3ccccc23)c1 | 71% (inactive)
CC1=NN(c2ccccc2)C(=O)/C1=C\C=C1/N(C)c2ccccc2C1(C)C | 74% (inactive)

SMILES | substrate turnover
COc1ccc(C=NNc2ccc(C(F)(F)F)cc2[N+](=O)[O-])cc1O | 76% (inactive)
C/C(C/C(C)=C1/SC(=S)NC1=O)=C1\SC(=S)NC1=O | 22%
Nc1ccc2c(c1)C(=O)c1cc(Cl)c(Cl)cc1-2 | 47%
COC(=O)C1=C(C(=O)OC)SC(=C2C(=S)C(C)(C)N(C(=O)C3CC3)c3ccccc32)S1 | 95% (inactive)
Nc1nc(-c2ccccc2)c(N=Nc2ccccc2Cl)s1 | 39%
CCOC(=O)/C(C#N)=C/C=C1\C=Cc2ccccc2N1CC | 51%
O=C1c2cccc(Cl)c2C(=O)c2c1cccc2N1CCCC1 | 52%
Cc1[nH]n2c(=O)cc(-c3ccc([N+](=O)[O-])cc3)nc2c1-c1ccccc1 | 90% (inactive)
CN(C)c1ccc(N=Nc2ccccc2C(=O)OCC(=O)NCC2CCCCC2)cc1 | 79% (inactive)
Cc1ccc(-n2c(O)c(/C=N/Nc3ccc(S(=O)(=O)N4CCOCC4)cc3[N+](=O)[O-])c3ccccc3c2=O)c(C)c1 | 56%
Cc1cc(N(CCO)CCO)ccc1N=Nc1cc(F)ccc1F | 69% (inactive)
CCOc1ccc(Nc2nnc(SCc3nc4ccccc4c(=O)[nH]3)s2)cc1 | 69% (inactive)
CN(C)c1ccc(N=Nc2ccccc2C(=O)OCC(=O)Nc2ccccc2C(F)(F)F)cc1 | 67% (inactive)
CC(=O)c1c(C)oc2ccc(NS(=O)(=O)c3ccc(O)c(C(=O)O)c3)cc12 | 23%
O=[N+]([O-])c1ccc(N2CCN(c3ccc(F)cc3)CC2)cc1 | 74% (inactive)
Cc1ccc(C)c(NC(=O)/C(C#N)=C/c2cn(CC(=O)NCc3ccco3)c3ccccc23)c1 | 93% (inactive)
CC(=O)C1=C(O)C(=O)N(c2cc(C(C)(C)C)on2)C1c1ccc(Br)cc1 (stereo unspecified) | 26%
CC(=NNc1ccc(S(N)(=O)=O)cc1[N+](=O)[O-])c1ccc2c(c1)OCO2 | 64% (inactive)
Nc1nc(-c2ccccc2)c(N=Nc2cccnc2)s1 | 53%
N=C1C(c2nc3ccccc3s2)=C(O)CN1NC(=O)c1ccccc1[N+](=O)[O-] | 46%
Cc1cc(N=Nc2ccccc2)c(NCC(O)C(O)C(O)CO)cc1C (stereo unspecified) | 69% (inactive)
CCOc1ccccc1N1CCN(C2=C(NS(=O)(=O)c3cccs3)C(=O)c3ccccc3C2=O)CC1 | 79% (inactive)

SMILES | substrate turnover
Cc1ccc(C2C(/C=C3/SC(=S)NC3=O)=C(c3cccs3)Oc3ccccc32)cc1 (stereo unspecified) | 35%
O=S(=O)(O)c1cccc(N=Nc2c(O)ccc3ccccc23)c1 | 59%
O=C(NNc1c2ccccc2nc2ccccc12)c1cc2ccccc2cc1O | 65% (inactive)
O=C1C(=C(c2ccccc2)c2ccccc2)Nc2ccccc21 | 50%
CCN(CCCNc1cc2c(c(N)c1S(=O)(=O)O)C(=O)c1ccccc1C2=O)c1ccccc1 | 80% (inactive)
CCCOc1ccc(C(=O)NNC(=S)NC(=O)c2cc(-c3ccc(Cl)cc3)nc3ccccc23)cc1 | 93% (inactive)
CCOc1ccc2c(c1)-c1c(ssc1=S)C(C)(C)N2 | 70% (inactive)
Cc1cc(N=Nc2ccccc2C(=O)O)c(C)c(C)c1O | 89% (inactive)
CCCN1C(=O)/C(=C2/C=Cc3ccccc3N2CC)SC1=S | 68% (inactive)
CC(=O)Nc1ccc(/C=N/Nc2ccc(S(=O)(=O)Nc3ccccc3C(=O)O)cc2[N+](=O)[O-])cc1 | 84% (inactive)
O=C(NNc1c2ccccc2nc2ccccc12)c1ccccc1O | 56%
O=C1CC(=C(c2ccccc2)c2ccccc2)C(=O)N1CCCCN1CCN(c2cccc(Cl)c2)CC1 | 26%
c1ccc(N=NC2=NN(c3ccccc3)CS2)cc1 | 61% (inactive)
NS(=O)(=O)c1ccc(N=Nc2c(O)ccc3ccccc23)cc1 | 57%
NC(=O)CC(NC(=O)c1ccc(Br)cc1)c1ccc(NCCc2ccc(F)cc2)c([N+](=O)[O-])c1 (stereo unspecified) | 70% (inactive)
Cc1ccc(-n2[nH]c(C)c(C=NNc3ccc([N+](=O)[O-])cc3[N+](=O)[O-])c2=O)cc1C | 57%
O=[N+]([O-])c1ccc(N2CCN(c3ccccc3)CC2)cc1 | 91% (inactive)
COc1cc(/C=C2\SC(=O)N(c3ccccc3Cl)C2=O)cc([N+](=O)[O-])c1O | 61% (inactive)
CC(C1SC(=S)NC1=O)C1SC(=S)NC1=O (stereo unspecified) | 67% (inactive)
Cn1cc(/C=C2\SC(=O)NC2=S)c2ccccc21 | 61% (inactive)
Nc1ccc(N=Nc2ccccc2)c2cccnc12 | 88% (inactive)
CN(C)c1ccc(N=Nc2ccc(S(=O)(=O)O)cc2)c2ccccc12 | 66% (inactive)

SMILES | substrate turnover
Cc1ccc(Nc2nnc(SCc3nc4ccccc4c(=O)[nH]3)s2)cc1 | 87% (inactive)
CC(=O)c1ccc(N2CCN(c3ccc(C(F)(F)F)cn3)CC2)cc1 | 67% (inactive)
COc1ccccc1N=Nc1nc(-c2ccccc2)c(-c2ccccc2)[nH]1 | 79% (inactive)
CCN(CC)c1ccc(N=Nc2nn(C)c(C)c2[N+](=O)[O-])cc1 | 68% (inactive)
CCC(=NNc1ccc([N+](=O)[O-])cc1[N+](=O)[O-])c1ccc(O)cc1 | 67% (inactive)
CCSC1=NC(=O)/C(=C2/C=Cc3ccccc3N2CC)S1 | 100% (inactive)
COc1cc(/C=C2/C(=O)NN(c3ccc(C)c(Cl)c3)C2=O)cc([N+](=O)[O-])c1O | 43%
O=C1c2ccccc2C(=O)c2c1cccc2N1CCCC1 | 79% (inactive)
O=C(NN1C(=O)/C(=C/c2ccc(O)c([N+](=O)[O-])c2)SC1=S)c1ccccc1Cl | 59%
COc1ccc(C2/C=C\CN(C(=O)c3ccc(C)cc3)[C@H](Cc3ccccc3)C(=O)N2Cc2ccc(F)cc2)cc1 (stereo partly specified) | 59%
CCOc1cc(/C=C2\N=C(SCC)SC2=O)cc([N+](=O)[O-])c1OC(C)=O | 78% (inactive)
O=[N+]([O-])c1ccc(C=NNc2ccc3ccccc3c2)o1 | 67% (inactive)
N#CC(C#N)=NNc1ccc([N+](=O)[O-])cc1 | 65% (inactive)
COc1ccccc1C=NNc1ccccc1[N+](=O)[O-] | 94% (inactive)
CC1=NN(c2ccccc2)C(=O)C1N=Nc1ccc(N)cc1 (stereo unspecified) | 65% (inactive)
COc1ccc(N/C=C2\C(=O)CCc3c2oc2cc(Cl)c(O)c(Cl)c32)cc1 | 16%
Cc1ccc(NC2=C(Cl)C(=O)OC2OC(=O)c2ccco2)cc1C (stereo unspecified) | 39%
O=C1S/C(=C\c2ccc(O)c([N+](=O)[O-])c2)C(=O)N1c1ccccc1Cl | 76% (inactive)
O=C(NC(C(=O)NN=Cc1cccc2ccccc12)c1n[nH]c(=O)c2ccccc12)c1ccccc1 (stereo unspecified) | 49%
CC1CC(C)CN(C(=O)c2ccc3c(c2NCCO)C(=O)c2ccccc2C3=O)C1 (stereo unspecified) | 78% (inactive)
